ChEMBL document CHEMBL3407364, “Synthesis and antitumor activity of ring A modified 11-keto-β-boswellic acid derivatives” (Eur J Med Chem, 2015)
The source made the active and inactive calls. The rule behind the calls is not given here.

Experiments:
Type in all cases: functional, cell-based
HT-29 = assay: Cytotoxicity against human HT-29 cells assessed as cell survival after 96 hrs by SRB assay; details: HT-29, 96 h
A2780 [1] = assay: Cytotoxicity against human A2780 cells assessed as cell survival after 96 hrs by SRB assay; details: A2780, 96 h
[2] = Cytotoxicity against human DLD1 cells assessed as cell survival after 96 hrs by SRB assay; details: DLD-1, 96 h
[3] = Cytotoxicity against human A253 cells assessed as cell survival after 96 hrs by SRB assay; details: A253, 96 h
[4] = Cytotoxicity against human HCT8 cells assessed as cell survival after 96 hrs by SRB assay; details: HCT-8, 96 h
A2780 [5] = assay: Induction of apoptosis in human A2780 cells assessed as DNA fragmentation at IC90 after 24 hrs by DNA-laddering assay
A2780 [6] = assay: Induction of apoptosis in human A2780 cells assessed as intact cell membrane at IC90 after 24 hrs by trypan blue exclusion assay

Row | SMILES | IC50 (HT-29) | IC50 (A2780 [1]) | IC50 [2] | IC50 [3] | IC50 [4] | Activity (A2780 [5]) | Activity (A2780 [6])
1 | COC(=O)[C@@]1(C)/C(=N/O)CC[C@@]2(C)[C@H]1CC[C@]1(C)[C@@H]2C(=O)C=C2[C@@H]3[C@@H](C)[C@H](C)CC[C@]3(C)CC[C@]21C | 15.4 µM | 18 µM | 13.7 µM | 15.5 µM | 16.4 µM |  | 
2 | C[C@H]1[C@H](C)CC[C@]2(C)CC[C@]3(C)C(=CC=C4[C@@]5(C)CC[C@@H](O)[C@](C)(CO)[C@@H]5CC[C@]43C)[C@H]12 | 23.9 µM | 43.2 µM | 19.5 µM | 18.1 µM | 31.3 µM |  | 
3 | COC(=O)[C@]1(C)[C@@H]2CC[C@]3(C)[C@H](C(=O)C=C4[C@@H]5[C@@H](C)[C@H](C)CC[C@]5(C)CC[C@]43C)[C@@]2(C)CC1(O)C(=O)O (some centres not stated) | 51.4 µM | 53.6 µM | 56.1 µM | 54.9 µM | 46.9 µM |  | 
4 | COC(=O)[C@@]1(C)C=CC[C@@]2(C)[C@H]1CC[C@]1(C)[C@@H]2C(=O)C=C2[C@@H]3[C@@H](C)[C@H](C)CC[C@]3(C)CC[C@]21C | 30.2 µM | 40.1 µM | 32.9 µM | 40.2 µM | 39.4 µM |  | 
5 | C[C@H]1[C@H](C)CC[C@]2(C)CC[C@]3(C)C(=CC(=O)[C@@H]4[C@@]5(C)CC[C@@H](O)[C@](C)(C(=O)O)[C@@H]5CC[C@]43C)[C@H]12 [11-KETO BOSWELLIC ACID] | 71.9 µM | 37.9 µM | 57.7 µM | 45.9 µM | 44.6 µM |  | 
6 | COC(=O)[C@@]1(C)C(=O)C(O)=C[C@]2(C)[C@H]3C(=O)C=C4[C@@H]5[C@@H](C)[C@H](C)CC[C@]5(C)CC[C@@]4(C)[C@]3(C)CC[C@@H]12 | 29.9 µM | 41.1 µM | 34.1 µM | 42.3 µM | 39.7 µM |  | 
7 | C[C@H]1[C@H](C)CC[C@]2(C)CC[C@]3(C)C(=CC(=O)[C@@H]4[C@@]5(C)CCC(=O)[C@@H](C)[C@@H]5CC[C@]43C)[C@H]12 | 28.2 µM | 23.5 µM | 57.3 µM | 39.4 µM | 30.2 µM |  | 
8 | C[C@H]1[C@H](C)CC[C@]2(C)CC[C@]3(C)C(=CC(=O)[C@@H]4[C@@]5(C)CC[C@H](N)[C@](C)(C(=O)O)[C@@H]5CC[C@]43C)[C@H]12 | 8.7 µM | 7.3 µM | 9.9 µM | 5.6 µM | 12.5 µM | Active | Active
9 | CC(=O)O[C@@H]1CC[C@@]2(C)[C@@H](CC[C@]3(C)[C@@H]2C(=O)C=C2[C@@H]4[C@@H](C)[C@H](C)CC[C@]4(C)CC[C@]23C)[C@@]1(C)C(=O)O [AKBA] | 19.4 µM | 14.1 µM | 20.9 µM | 16.9 µM | 17.5 µM |  | 
10 | COC(=O)[C@@]1(C)[C@@H](C(=O)O)CC[C@@]2(C)[C@H]1CC[C@]1(C)[C@@H]2C(=O)C=C2[C@@H]3[C@@H](C)[C@H](C)CC[C@]3(C)CC[C@]21C | 34.1 µM | 35.4 µM | 42.7 µM | 38.2 µM | 41.7 µM |  | 
